This note sets out measurements from patent US20140088187A1, “ANDROGEN RECEPTOR INHIBITORS AND METHODS OF USE THEREOF” (BETH ISRAEL DEACONESS MEDICAL CENTER, priority 2010, published 2014).

This series deals with T1, AR (Mus musculus, UniProt P19091).
T1 construct: we first treated adult male mice with compound A89 in a dose ranging experiment; from tissue; host or cells: seminal vesicles and prostate epithelium of intact adult male mice
T1 sequence (P19091 1-899): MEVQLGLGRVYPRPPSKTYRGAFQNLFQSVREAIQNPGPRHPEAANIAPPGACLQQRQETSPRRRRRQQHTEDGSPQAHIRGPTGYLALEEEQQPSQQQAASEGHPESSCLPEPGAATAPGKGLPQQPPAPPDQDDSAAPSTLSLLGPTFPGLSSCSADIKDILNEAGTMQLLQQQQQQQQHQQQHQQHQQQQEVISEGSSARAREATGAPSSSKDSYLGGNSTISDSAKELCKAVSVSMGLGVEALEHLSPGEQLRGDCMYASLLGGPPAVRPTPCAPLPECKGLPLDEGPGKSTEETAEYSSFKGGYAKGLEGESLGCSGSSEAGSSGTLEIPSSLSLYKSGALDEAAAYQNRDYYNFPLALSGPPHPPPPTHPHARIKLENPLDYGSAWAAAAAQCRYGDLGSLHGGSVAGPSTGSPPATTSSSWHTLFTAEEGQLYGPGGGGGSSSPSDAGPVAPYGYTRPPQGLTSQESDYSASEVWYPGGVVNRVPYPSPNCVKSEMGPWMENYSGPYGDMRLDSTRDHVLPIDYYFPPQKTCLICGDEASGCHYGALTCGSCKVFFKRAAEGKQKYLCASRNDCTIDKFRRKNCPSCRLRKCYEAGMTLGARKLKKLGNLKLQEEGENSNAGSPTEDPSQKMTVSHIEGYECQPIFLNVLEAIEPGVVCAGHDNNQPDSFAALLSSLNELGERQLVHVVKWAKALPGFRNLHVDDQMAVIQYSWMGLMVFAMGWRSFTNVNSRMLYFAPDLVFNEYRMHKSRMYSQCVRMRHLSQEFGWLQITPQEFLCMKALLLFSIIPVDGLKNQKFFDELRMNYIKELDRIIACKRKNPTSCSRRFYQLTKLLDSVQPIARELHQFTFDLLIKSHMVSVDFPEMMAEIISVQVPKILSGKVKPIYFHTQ
Kind of series: Dose ranging experiment in intact adult male mice (seminal vesicles, prostate epithelium). The format is in vivo. As for the experimental part:
FIG. 17. Compound A89 maintains activity in vivo and is efficacious in a CRPC xenograft model. (a) Morphological changes in seminal vesicles of intact adult male mice following treatment with DMSO vehicle, Bic (0.5 mg/day) or A89 (mg/day as indicated) for 7 days. (b) H&E stained cross-sections of prostate ductal epithelium from above mice treated with DMSO, Bic, or A89 (10 mg/day). (c) AR and Ki-67 staining in pre- and post-castration relapsed VCaP xenograft tumor sections following treatment with A89 (5 mg/day) or Bic (0.5 mg/day) for 7 days. (d) mRNA levels of AR and AR-target genes in post-castration relapsed VCaP xenograft tumors following treatment with A89 (5 mg/day) for 7 days. Error bars represent S.E.M.
To evaluate the activity of the chemotype A compounds in vivo we first treated adult male mice with compound A89 in a dose ranging experiment from 0.5 mg/day to 10 mg/day via intraperitoneal injection for 7 days. […] We next evaluated A89 in VCaP xenograft tumors that had relapsed following an initial response to castration, which is a model of CRPC.

Bounds are passed on as bounds.

Take `CCOc1cc(F)c(S(=O)(=O)NCc2ccc3c(c2)OCO3)cc1F` [Compound A89, N-(1,3-benzodioxol-5-ylmethyl)-4-ethoxy-2,5-difluorobenzenesulfonamide]: under “0.5 mg/day to 10 mg/day intraperitoneal injection for 7 days”, the “general health of mice” value is recorded as “outwardly healthy”. The “androgen sensitive prostate epithelium” value (adult male mice, 7 days (10 mg/day in FIG. 17b)) was “atrophy”. For the same compound, the “seminal vesicles dose-dependent involution, beginning at dose” value (adult male mice, intraperitoneal injection for 7 days) is listed as at least 2.5 mg/day.
